Patent EP4582413A1, “ARYLTETRAHYDROPYRIDINE COMPOUND AND PEST CONTROL AGENT” (priority 2022, dated 2024)

Experiments:
Type in all cases: in vivo
[1] = test system: brown rice planthoppers (Nilaparvata lugens); assay: Insecticidal test for brown rice planthoppers; settings: 500 ppm chemical solution, rice leaf sheaths soaked, third-instar larvae, six days, 25°C; for mortality at 500 µg/mL: Nilaparvata lugens, 144 h, read-out: death rate; for death rate: 8640 min
Method: A 10% by mass emulsion of the presently invented compound prepared according to the above formulation example for an emulsion was diluted with water containing a spreader to prepare a chemical solution having a concentration of 500 ppm. Rice leaf sheaths were soaked in the chemical solution for approximately 10 seconds. After the completion of the soaking operation, the rice leaf sheaths treated with the chemical solution were air-dried, and then put in test tubes. Into each test tube, five third-instar brown rice planthoppers (Nilaparvata lugens) larvae were released, and the test tubes were capped with sponge and accommodated in a thermostatic room at 25°C. Six days after the accommodation, the number of dead brown rice planthoppers individuals in the test tubes were examined, and the death rate was calculated from a calculation formula shown below. The test was carried out in duplicate. [formula]

[2] = test system: western flower thrips (Frankliniella occidentalis); assay: Insecticidal activity against western flower thrips; settings: 500 ppm chemical solution sprinkled (2.5 mg/cm^2), larvae on common bean leaf, after 2 days; for mortality at 500 µg/mL: Frankliniella occidentalis, 48 h, read-out: death rate
Method: Wet filter paper was laid on each styrol cup having an inner diameter of 7 cm, and a common bean leaf cut into a 3 cm square was placed thereon, and inoculated with 20 western flower thrips (Frankliniella occidentalis) larvae. A 10% by mass emulsion of the presently invented compound prepared according to the above formulation example for an emulsion was diluted with water containing a spreader to prepare a chemical solution having a concentration of 500 ppm. For each styrol cup, 2.5 ml of the chemical solution prepared was sprinkled (2.5 mg/cm^2) with a rotary tower sprinkler. […] The test was carried out in duplicate.

[3] = test system: diamondback moths (Plutella xylostella); assay: Insecticidal test for diamondback moths; settings: 500 ppm chemical solution, leaves soaked, third-instar larvae, six days, 25°C; for mortality at 500 µg/mL: Plutella xylostella, 144 h, read-out: death rate; for death rate: 8640 min
Method: A 10% by mass emulsion of the presently invented compound prepared according to the above formulation example for an emulsion was diluted with water containing a spreader to prepare a chemical solution having a concentration of 500 ppm. Chinese olive leaves were soaked in the chemical solution for approximately 10 seconds. After the completion of the soaking operation, the Chinese olive leaves treated with the chemical solution were air-dried, and then put in dishes. Into each dish, five third-instar diamondback moths (Plutella xylostella) larvae were released, and the dishes were capped and accommodated in a thermostatic room at 25°C. […] The test was carried out in duplicate.

[4] = test system: cat fleas (Ctenocephalides felis); assay: whole plant or invertebrate; settings: 72 h, read-out: death rate
Method: In 1 ml of acetone, 1 mg of the presently invented compound was dissolved to prepare a chemical solution having a concentration of 1000 ppm. The bottom surface and side surface of each glass container having an inner wall surface area of 25 cm^2 were coated with 250 µl of the chemical solution, and acetone was then volatilized to form a thin film of the compound on the inner wall of the glass container.
Into each of the treated glass containers, five cat fleas (Ctenocephalides felis) imagoes (mixed-sex) were released, and the glass containers were capped and accommodated in a thermostatic room at 25°C. Three days after the release, the number of dead flea individuals were examined, and the death rate was calculated from the same calculation formula as in Test Example 1.

O=C(Nc1ccc(F)cc1)C1=C(O)CC(c2ccc(C(F)(F)F)c(-c3cncc(F)c3)c2)NC1=O (stereo not drawn) [1-002]
mortality at 500 µg/mL [1]: ≥ 90% | mortality at 500 µg/mL [2]: ≥ 90% | mortality at 500 µg/mL [3]: ≥ 90% | mortality at 10 µg/cm2 [4]: ≥ 50%

COc1ccc(-c2cc(C3CC(O)=C(C(=O)Nc4ccc(F)cc4)C(=O)N3)ccc2C(F)(F)F)cc1 (stereo not drawn) [1-018]
mortality at 500 µg/mL [3]: ≥ 90% | mortality at 10 µg/cm2 [4]: ≥ 50%

O=C(Nc1ccc(F)nc1)C1=C(O)CC(c2cnc(Cl)c(-c3ccc(F)nc3)c2)NC1=O (stereo not drawn) [2-008]
mortality at 500 µg/mL [1]: ≥ 90% | mortality at 500 µg/mL [2]: ≥ 90% | mortality at 500 µg/mL [3]: ≥ 90% | mortality at 10 µg/cm2 [4]: ≥ 50%

O=C(Nc1ccc(F)cn1)C1=C(O)CC(c2cnc(Cl)c(-c3ccc(F)nc3)c2)NC1=O (stereo not drawn) [2-009]
mortality at 500 µg/mL [1]: ≥ 90% | mortality at 500 µg/mL [2]: ≥ 90% | mortality at 500 µg/mL [3]: ≥ 90% | mortality at 10 µg/cm2 [4]: ≥ 50%

O=C(Nc1cnc(Cl)cn1)C1=C(O)CC(c2cnc(Cl)c(-c3ccc(F)nc3)c2)NC1=O (stereo not drawn) [2-011]
mortality at 500 µg/mL [1]: ≥ 90% | mortality at 500 µg/mL [2]: ≥ 90% | mortality at 500 µg/mL [3]: ≥ 90% | mortality at 10 µg/cm2 [4]: ≥ 50%

O=C(Nc1ccc(C(F)(F)F)nc1)C1=C(O)CC(c2cnc(Cl)c(-c3ccc(F)nc3)c2)NC1=O (stereo not drawn) [2-012]
mortality at 500 µg/mL [1]: ≥ 90% | mortality at 500 µg/mL [2]: ≥ 90% | mortality at 500 µg/mL [3]: ≥ 90% | mortality at 10 µg/cm2 [4]: ≥ 50%

N#Cc1ccc(NC(=O)C2=C(O)CC(c3cnc(Cl)c(-c4ccc(F)nc4)c3)NC2=O)cn1 (stereo not drawn) [2-013]
mortality at 500 µg/mL [1]: ≥ 90% | mortality at 500 µg/mL [2]: ≥ 90% | mortality at 500 µg/mL [3]: ≥ 90% | mortality at 10 µg/cm2 [4]: ≥ 50%

COc1ccc(-c2cc(C3CC(O)=C(C(=O)Nc4ccc(Cl)nc4)C(=O)N3)cnc2Cl)cn1 (stereo not drawn) [2-017]
death rate [3]: ≥ 90%

C[S+]([O-])c1ccc(NC(=O)C2=C(O)CC(c3cnc(Cl)c(-c4ccc(Cl)nc4)c3)NC2=O)cc1 (stereo not drawn) [2-043]
death rate [1]: ≥ 90%

O=C(Nc1ncc(C(F)(F)F)cn1)C1=C(O)CC(c2cnc(Cl)c(-c3cncc(F)c3)c2)NC1=O (stereo not drawn) [2-051]
death rate [1]: ≥ 90%

O=C(Nc1ccc(Cl)nn1)C1=C(O)CC(c2cnc(Cl)c(-c3cncc(F)c3)c2)NC1=O (stereo not drawn) [2-052]
death rate [1]: ≥ 90%

CC(=O)c1ccc(-c2cc(C3CC(O)=C(C(=O)Nc4ccc(Cl)cn4)C(=O)N3)cnc2Cl)cc1 (stereo not drawn) [2-066]
death rate [3]: ≥ 90%

N#Cc1ccc(NC(=O)C2=C(O)CC(c3cnc(Cl)c(-c4cncc(F)c4)c3)NC2=O)cc1 (stereo not drawn) [2-071]
mortality at 500 µg/mL [1]: ≥ 90% | mortality at 500 µg/mL [2]: ≥ 90% | mortality at 10 µg/cm2 [4]: ≥ 50%

O=C(Nc1ccc(F)cc1)C1=C(O)CC(c2cnc(Cl)c(-c3ccccc3)c2)NC1=O (stereo not drawn) [2-089]
mortality at 500 µg/mL [1]: ≥ 90% | mortality at 500 µg/mL [2]: ≥ 90% | mortality at 500 µg/mL [3]: ≥ 90% | mortality at 10 µg/cm2 [4]: ≥ 50%

N#Cc1ccc(NC(=O)C2=C(O)CC(c3cnc(Cl)c(-c4ccccc4)c3)NC2=O)cc1 (stereo not drawn) [2-090]
mortality at 500 µg/mL [1]: ≥ 90% | mortality at 500 µg/mL [2]: ≥ 90% | mortality at 500 µg/mL [3]: ≥ 90% | mortality at 10 µg/cm2 [4]: ≥ 50%

Cc1cncc(-c2cc(C3CC(O)=C(C(=O)Nc4cnccn4)C(=O)N3)cnc2Cl)c1 (stereo not drawn) [2-148]
mortality at 500 µg/mL [3]: ≥ 90% | mortality at 10 µg/cm2 [4]: ≥ 50%

O=C(Nc1ccccn1)C1=C(O)CC(c2cnc(Cl)c(-c3ccc(F)cc3)c2)NC1=O (stereo not drawn) [2-226]
mortality at 500 µg/mL [2]: ≥ 90% | mortality at 500 µg/mL [3]: ≥ 90% | mortality at 10 µg/cm2 [4]: ≥ 50%

O=C(Nc1ccc(F)cc1)C1=C(O)CC(c2cnc(Cl)c(-c3ccc(F)cc3)c2)NC1=O (stereo not drawn) [2-229]
mortality at 500 µg/mL [2]: ≥ 90% | mortality at 500 µg/mL [3]: ≥ 90% | mortality at 10 µg/cm2 [4]: ≥ 50%

O=C(Nc1ccc(C(F)(F)F)cn1)C1=C(O)CC(c2cnc(Cl)c(-c3ccc(F)cc3)c2)NC1=O (stereo not drawn) [2-230]
death rate [2]: ≥ 90%

O=C(Nc1nccnn1)C1=C(O)CC(c2cnc(Cl)c(-c3ccc(F)cc3)c2)NC1=O (stereo not drawn) [2-237]
death rate [3]: ≥ 90%

O=C(Nc1ncccn1)C1=C(O)CC(c2cnc(Cl)c(-c3ccc(F)cc3)c2)NC1=O (stereo not drawn) [2-238]
mortality at 500 µg/mL [1]: ≥ 90% | mortality at 500 µg/mL [2]: ≥ 90% | mortality at 10 µg/cm2 [4]: ≥ 50%

O=C(Nc1nncs1)C1=C(O)CC(c2cnc(Cl)c(-c3ccc(F)cc3)c2)NC1=O (stereo not drawn) [2-239]
mortality at 500 µg/mL [2]: ≥ 90%

O=C(Nc1ccc(O)cc1)C1=C(O)CC(c2cnc(Cl)c(-c3ccc(F)cc3)c2)NC1=O (stereo not drawn) [2-241]
death rate [3]: ≥ 90%

C#Cc1ccc(NC(=O)C2=C(O)CC(c3cnc(Cl)c(-c4ccc(F)cc4)c3)NC2=O)cc1 (stereo not drawn) [2-243]
death rate [3]: ≥ 90%

COc1ccc(NC(=O)C2=C(O)CC(c3cnc(Cl)c(-c4cccc(C)c4)c3)NC2=O)cc1 (stereo not drawn) [2-258]
death rate [2]: ≥ 90%

Cc1cccc(-c2cc(C3CC(O)=C(C(=O)Nc4nccnn4)C(=O)N3)cnc2Cl)c1 (stereo not drawn) [2-270]
mortality at 10 µg/cm2 [4]: ≥ 50%

Cc1cccc(-c2cc(C3CC(O)=C(C(=O)Nc4cccnc4F)C(=O)N3)cnc2Cl)c1 (stereo not drawn) [2-275]
mortality at 10 µg/cm2 [4]: ≥ 50%

Cc1cccc(-c2cc(C3CC(O)=C(C(=O)Nc4ccc([N+](=O)[O-])cc4)C(=O)N3)cnc2Cl)c1 (stereo not drawn) [2-279]
mortality at 500 µg/mL [2]: ≥ 90% | mortality at 500 µg/mL [3]: ≥ 90% | mortality at 10 µg/cm2 [4]: ≥ 50%

Cc1ccc(NC(=O)C2=C(O)CC(c3cnc(Cl)c(-c4cccc(C)c4)c3)NC2=O)cc1 (stereo not drawn) [2-282]
mortality at 500 µg/mL [2]: ≥ 90% | mortality at 500 µg/mL [3]: ≥ 90% | mortality at 10 µg/cm2 [4]: ≥ 50%

CC(=O)c1ccc(NC(=O)C2=C(O)CC(c3cnc(Cl)c(-c4ccc(F)cc4)c3)NC2=O)cc1 (stereo not drawn) [2-295]
death rate [3]: ≥ 90%

CC(C)(C)OC(=O)c1ccc(NC(=O)C2=C(O)CC(c3cnc(Cl)c(-c4ccc(F)cc4)c3)NC2=O)cc1 (stereo not drawn) [2-296]
mortality at 500 µg/mL [2]: ≥ 90%

O=C(Nc1ccc(F)cc1)C1=C(O)CC(c2nc(-c3ccc(Cl)cc3)no2)NC1=O (stereo not drawn) [3-003]
mortality at 500 µg/mL [2]: ≥ 90% | mortality at 500 µg/mL [3]: ≥ 90% | mortality at 10 µg/cm2 [4]: ≥ 50%

O=C(Nc1ccc(F)cc1)C1=C(O)CC(c2nc(-c3ccc(C(F)(F)F)cc3)no2)NC1=O (stereo not drawn) [3-004]
death rate [3]: ≥ 90%

O=C(Nc1ccc(Cl)nc1)C1=C(O)CC(c2nc(-c3ccccc3F)no2)NC1=O (stereo not drawn) [3-019]
death rate [3]: ≥ 90%

O=C(Nc1cc(F)ccn1)C1=C(O)CC(c2nc(-c3ccccn3)no2)NC1=O (stereo not drawn) [3-045]
mortality at 500 µg/mL [1]: ≥ 90% | mortality at 500 µg/mL [2]: ≥ 90% | mortality at 10 µg/cm2 [4]: ≥ 50%

Cc1ccoc1-c1noc(C2CC(O)=C(C(=O)Nc3ccc(F)cn3)C(=O)N2)n1 (stereo not drawn) [3-094]
death rate [1]: ≥ 90%

O=C(Nc1ccc([N+](=O)[O-])c(Cl)c1)C1=C(O)CC(c2nc(-c3ccnc(F)c3)no2)NC1=O (stereo not drawn) [3-120]
death rate [2]: ≥ 90%

Cc1cncc(-c2noc(C3CC(O)=C(C(=O)Nc4ccc(F)cn4)C(=O)N3)n2)c1 (stereo not drawn) [3-130]
death rate [1]: ≥ 90%

O=C(Nc1cc(F)ccn1)C1=C(O)CC(c2nc(-c3c(F)cccc3Cl)no2)NC1=O (stereo not drawn) [3-143]
mortality at 500 µg/mL [3]: ≥ 90%

O=C(Nc1cc(F)ccn1)C1=C(O)CC(c2nc(-c3ccc(Cl)c(F)c3)no2)NC1=O (stereo not drawn) [3-145]
mortality at 500 µg/mL [2]: ≥ 90% | mortality at 500 µg/mL [3]: ≥ 90% | mortality at 10 µg/cm2 [4]: ≥ 50%

Cc1ccnc(NC(=O)C2=C(O)CC(c3nc(-c4ccccn4)no3)NC2=O)c1 (stereo not drawn) [3-152]
mortality at 500 µg/mL [1]: ≥ 90%

Cc1ccnc(-c2noc(C3CC(O)=C(C(=O)Nc4ccc(F)cn4)C(=O)N3)n2)c1 (stereo not drawn) [3-153]
death rate [1]: ≥ 90%

Cc1ccc(NC(=O)C2=C(O)CC(c3nc(-c4ccsc4)no3)NC2=O)nc1 (stereo not drawn) [3-168]
death rate [1]: ≥ 90%

O=C(Nc1cc(F)ccn1)C1=C(O)CC(c2nc(-c3ccncn3)no2)NC1=O (stereo not drawn) [3-212]
mortality at 500 µg/mL [3]: ≥ 90% | mortality at 10 µg/cm2 [4]: ≥ 50%

O=C(Nc1ncccc1F)C1=C(O)CC(c2nc(-c3cnccc3F)no2)NC1=O (stereo not drawn) [3-237]
mortality at 500 µg/mL [1]: ≥ 90% | mortality at 500 µg/mL [3]: ≥ 90% | mortality at 10 µg/cm2 [4]: ≥ 50%

O=C(Nc1cnccn1)C1=C(O)CC(c2nc(-c3ccc(F)cn3)no2)NC1=O (stereo not drawn) [3-261]
mortality at 500 µg/mL [1]: ≥ 90% | mortality at 500 µg/mL [2]: ≥ 90%

Cc1ccc(NC(=O)C2=C(O)CC(c3nc(-c4ccnc(F)c4)no3)NC2=O)cc1Cl (stereo not drawn) [3-267]
mortality at 500 µg/mL [2]: ≥ 90%

Cc1csc(NC(=O)C2=C(O)CC(c3nc(-c4ccc(F)nc4)no3)NC2=O)n1 (stereo not drawn) [3-290]
death rate [1]: ≥ 90%
